Assay results published in patent publication US11873291B2, “Quinoline cGAS antagonist compounds” (ImmuneSensor Therapeutics, Inc., priority 2020, dated 2024).
Like-named read-outs stand apart in the source and are kept apart here.

Experiments:
[1] = test system: cGAS activity in Reporter THP1 cell line; test: Cellular assay to measure cGAS activity: ISRE-Gaussia luciferase reporter THP1 cells transfected with ISD; type: cell-based; details: Homo sapiens
Protocol: Cellular assay to measure cGAS activity: Reporter THP1 cell line harboring a gene encoding Gaussia Luciferase under the control of 5 tandem repeats of interferon-stimulated response elements (ISRE) fused to an ISG54 minimal promoter was used to test inhibition of cGAS activity by synthetic compounds in human cells. These cells were plated on 96-well plates at 0.3×10^6/well and incubated with serial dilutions of compounds or DMSO for 5 min, followed by transfection of 2 μg/mL of ISD (Interferon Stimulatory DNA, a 45 bp DNA oligo) or mock transfected using lipofectamine 2000 (Life Technology) method, according to manufacturer's instructions. 16 hours later, 15 μL of the media from each well was transferred to a new plate, 50 μL of solution containing 50 mM Hepes-NaOH, pH 6.5, 50 mM NaCl, 10 mM EDTA, 1 μM of coelenterazine was added to each well and luminescence was measured immediately. Fold increase in luminescence compared to mock transfection was plotted against concentrations of each compound, and IC50 is calculated using Graphpad. To evaluate the specificity of a compound, the same procedure was performed except that cells were transfected with 2 μg/mL poly(I:C) or infected with Sendai Virus (SeV) at 50 Unit/mL, which are known to activate the RIG-I-MAVS pathway. A specific inhibitory compound should inhibit interferon induction by DNA but have minimal effect on poly(I:C) or Sendai virus induced interferon reporter gene expression.
The letter codes for cGAS IC50 include: A (<2 μM); B (2-10 μM); C (>10 μM).

[2] = molecular target: T1, recombinant human cGAS (aa147-522) (Homo sapiens, UniProt Q8N884); test: In vitro inhibition assay of cGAS activity (ATP consumption, KinaseGlo Max); type: biochemical
T1 construct: recombinant human cGAS (aa147-522); His6-SUMO (cleaved yes); made in house; host or cells: E. coli BL21/pLys
In short: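 IC50 came from plotting % ATP consumption against log compound concentration, with leftover ATP detected by KinaseGlo Max chemiluminescence. Reactions ran 20 min at 37 °C with 1.5 μg/mL human cGAS (aa147-522), 6.6 μM ATP, 0.1 mM GTP and 0.01 mg/mL DNA at pH 7.5.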

[3] = THP-1, Table 4, Gaussia luciferase
[4] = Table 2, read-out: cGAS Inhibition Results IC50
[5] = THP-1, untitled table after Table 4 (continuation)
[6] = Table 3, read-out: cGAS Inhibition Results IC50

T1 sequence (Q8N884 147-522): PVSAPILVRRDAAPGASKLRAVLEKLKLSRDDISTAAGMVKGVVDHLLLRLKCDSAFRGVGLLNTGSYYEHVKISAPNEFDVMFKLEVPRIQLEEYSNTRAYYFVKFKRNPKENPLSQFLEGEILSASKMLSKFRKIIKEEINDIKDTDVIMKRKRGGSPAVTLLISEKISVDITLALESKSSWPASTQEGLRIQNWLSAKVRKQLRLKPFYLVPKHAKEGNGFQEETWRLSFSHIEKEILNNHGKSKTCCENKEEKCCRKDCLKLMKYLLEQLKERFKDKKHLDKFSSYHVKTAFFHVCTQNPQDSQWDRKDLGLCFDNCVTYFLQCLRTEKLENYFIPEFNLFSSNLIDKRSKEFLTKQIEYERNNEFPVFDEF

SMILES	IC50 [1, 3] [nM]	IC50 [2, 4] [nM]	IC50 [1, 5] [nM]	IC50 [2, 6] [nM]
O=C1CN(c2cc(-n3ccnc3)c3ccc(Cl)c(Cl)c3n2)CCCN1 [I-86]	2000 to 10000	< 2000		
COC(=O)[C@@H]1C[C@H]2C[C@H]2N1c1cc(-n2ccnc2)c2ccc(Cl)c(Cl)c2n1 [I-591]	2000 to 10000			2000 to 30000
CC(C)OC(=O)[C@@H]1[C@@H](O)CCN1c1cc(-n2ccnc2)c2ccc(Cl)c(Cl)c2n1 [I-600]	< 2000			2000 to 30000
O=C(O)[C@@H]1CCCN1c1cc(-c2cn[nH]c2)c2ccc(Cl)c(Cl)c2n1 [I-435]	2000 to 10000	< 2000		
COC(=O)[C@@H]1[C@@H](O)CCN1c1cc(-c2cn[nH]c2)c2ccc(Cl)c(Cl)c2n1 [I-598]	< 2000			2000 to 30000
O=C(O)CCOCCC[C@@H]1CCCN1c1cc(-n2ccnc2)c2ccc(Cl)c(Cl)c2n1 [I-677]	< 2000			< 2000
O=C(O)[C@@H]1CC2(CC2)CN1c1cc(-n2ccnc2)c2ccc(Cl)c(Cl)c2n1 [I-478]	2000 to 10000			< 2000
NC(=O)COC[C@@H]1CCCN1c1cc(-n2ccnc2)c2ccc(Cl)c(Cl)c2n1 [I-760, (S)-2-((1-(7,8-dichloro-4-(1H-imidazol-1-yl)quinolin-2-yl)pyrrolidin-2-yl)methoxy)acetamide]			> 10000	< 2000
O=C(O)COC[C@H](O)[C@@H]1CCCN1c1cc(-n2ccnc2)c2ccc(Cl)c(Cl)c2n1 [I-726, 2-((R)-2-((S)-1-(7,8-dichloro-4-(1H-imidazol-1-yl)quinolin-2-yl)pyrrolidin-2-yl)-2-hydroxyethoxy)acetic acid]	> 10000			< 2000
COc1cc(C(=O)O)cc(-c2cc(-n3ccnc3)c3ccc(Cl)cc3n2)c1 [I-24, 3-(7-chloro-4-(1H-imidazol-1-yl)quinolin-2-yl)-5-methoxybenzoic acid]	2000 to 10000	< 2000		
O=C(O)C1COCCN1c1cc(-n2ccnc2)c2ccc(Cl)c(Cl)c2n1 (centres unmarked) [I-92]	> 10000	< 2000		
COC(=O)C1C(C)CCN1c1cc(-n2ccnc2)c2ccc(Cl)c(Cl)c2n1 (centres unmarked) [I-578]	2000 to 10000			2000 to 30000
O=C(O)[C@@H]1[C@@H]2C[C@@H]2CN1c1cc(-n2ccnc2)c2ccc(Cl)c(Cl)c2n1 [I-470]	2000 to 10000			< 2000
COC(=O)[C@@H]1[C@@H](OC(C)=O)CCN1c1cc(-n2ccnc2)c2ccc(Cl)c(Cl)c2n1 [I-642, methyl (2S,3S)-3-acetoxy-1-(7,8-dichloro-4-(1H-imidazol-1-yl)quinolin-2-yl)pyrrolidine-2-carboxylate]	< 2000			2000 to 30000
COC(=O)C(C)COC[C@@H]1CCCN1c1cc(-n2ccnc2)c2ccc(Cl)c(Cl)c2n1 (some centres unmarked) [I-720]	< 2000			2000 to 30000
O=C(O)COC[C@@H]1CCCN1c1cc(-n2ccnc2)c2ccc(Cl)c(Cl)c2n1 [I-666, (S)-2-((1-(7,8-dichloro-4-(1H-imidazol-1-yl)quinolin-2-yl)pyrrolidin-2-yl)methoxy)acetic acid]	< 2000			< 2000
O=C(OCC(F)(F)F)[C@@H]1[C@@H](O)CCN1c1cc(-n2ccnc2)c2ccc(Cl)c(Cl)c2n1 [I-556]	< 2000			< 2000
COC(=O)[C@H]1CCCN1C(=O)C[C@@H]1CCCN1c1cc(-n2ccnc2)c2ccc(Cl)c(Cl)c2n1 [I-532]	2000 to 10000			2000 to 30000
O=C(O)CCOC[C@@H]1CCN1c1cc(-n2ccnc2)c2ccc(Cl)c(Cl)c2n1 [I-688]	< 2000			< 2000
O=C(O)CCOC[C@H]1CCCN(c2cc(-n3ccnc3)c3ccc(Cl)c(Cl)c3n2)C1 [I-745]	< 2000			< 2000

Continued, values first:

IC50 [1, 3] [nM]	IC50 [2, 4] [nM]	IC50 [1, 5] [nM]	IC50 [2, 6] [nM]	SMILES
		> 10000	2000 to 30000	COC(=O)CCNC(=O)[C@@H]1[C@@H](O)CCN1c1cc(-n2ccnc2)c2ccc(Cl)c(Cl)c2n1 [I-791, methyl 3-((2S,3S)-1-(7,8-dichloro-4-(1H-imidazol-1-yl)quinolin-2-yl)-3-hydroxypyrrolidine-2-carboxamido)propanoate]
		< 2000	< 2000	O=C(O)CCOCC12CC(CN1c1cc(-n3ccnc3)c3ccc(Cl)c(Cl)c3n1)C2 [I-800]
		2000 to 10000	< 2000	O=C(O)Cc1ccccc1CNc1cc(-n2ccnc2)c2ccc(Cl)c(Cl)c2n1 [I-888]
		> 10000	2000 to 30000	C[C@H]1[C@@H](C(=O)O)N(c2cc(-n3ccnc3)c3ccc(Cl)c(Cl)c3n2)C[C@@H]1O [I-780]
		< 2000	< 2000	COc1cc(Cl)c2nc(N3CCC[C@H]3COCCC(=O)O)cc(-n3ccnc3)c2c1 [I-875]
		> 10000	< 2000	O=C(O)C[C@H]1CCCN1c1cc(-n2ccnc2)c2ccc(Cl)c(Cl)c2n1 [I-776]
		2000 to 10000	< 2000	O=C(O)CCOCC1(CNc2cc(-n3ccnc3)c3ccc(Cl)c(Cl)c3n2)CC1 [I-829]
		< 2000	< 2000	O=C(O)CCOC[C@@H]1C[C@@H]2CCCC[C@@H]2N1c1cc(-n2ccnc2)c2ccc(Cl)c(Cl)c2n1 [I-808]
		> 10000	< 2000	O=C(O)CCNC(=O)[C@@H]1[C@@H](O)CCN1c1cc(-n2ccnc2)c2ccc(Cl)c(Cl)c2n1 [I-784, 3-((2S,3S)-1-(7,8-dichloro-4-(1H-imidazol-1-yl)quinolin-2-yl)-3-hydroxypyrrolidine-2-carboxamido)propanoic acid]
		2000 to 10000	< 2000	CN(CCOc1cccc(CC(=O)O)c1)c1cc(-n2ccnc2)c2ccc(Cl)c(Cl)c2n1 [I-843]
		> 10000	< 2000	O=C(O)C(O)CC[C@@H]1CCCN1c1cc(-n2ccnc2)c2ccc(Cl)c(Cl)c2n1 (stereo partly drawn) [I-817, 4-((S)-1-(7,8-dichloro-4-(1H-imidazol-1-yl)quinolin-2-yl)pyrrolidin-2-yl)-2-hydroxybutanoic acid]
		< 2000	< 2000	O=C(O)CCOCCN(Cc1ccccc1)c1cc(-n2ccnc2)c2ccc(Cl)c(Cl)c2n1 [I-837]
		< 2000	< 2000	Cc1ccc(-c2cc(-n3ccnc3)c3ccc(Cl)c(Cl)c3n2)cc1COCCC(=O)O [I-877]
		< 2000	< 2000	O=C(O)CCOC[C@@H]1CCCCN1c1cc(-n2ccnc2)c2ccc(Cl)c(Cl)c2n1 [I-789]
		2000 to 10000	< 2000	O=C1OCC2CCN(c3cc(-n4ccnc4)c4ccc(Cl)c(Cl)c4n3)C12 (centres unmarked) [I-775, 1-(7,8-dichloro-4-(1H-imidazol-1-yl)quinolin-2-yl)hexahydro-6H-furo[3,4-b]pyrrol-6-one]
		< 2000	< 2000	O=C(O)CCOC[C@@H]1C[C@@H](c2ccccc2)CN1c1cc(-n2ccnc2)c2ccc(Cl)c(Cl)c2n1 [I-802]
		< 2000	< 2000	O=C(O)CCOCCN(c1cc(-n2ccnc2)c2ccc(Cl)c(Cl)c2n1)C1CC1 [I-834]
		2000 to 10000	< 2000	CN(CCOc1ccccc1C(=O)O)c1cc(-n2ccnc2)c2ccc(Cl)c(Cl)c2n1 [I-842]
		< 2000	< 2000	O=C(O)CCOCc1cccc(-c2cc(-n3ccnc3)c3ccc(Cl)c(Cl)c3n2)c1 [I-840, 3-((3-(7,8-dichloro-4-(1H-imidazol-1-yl)quinolin-2-yl)benzyl)oxy)propanoic acid]
		> 10000	< 2000	O=C(O)CCOCc1ccccc1-c1cc(-n2ccnc2)c2ccc(Cl)c(Cl)c2n1 [I-841]
		< 2000	< 2000	O=C(O)CCOC[C@@H]1C[C@H]2C[C@H]2N1c1cc(-n2ccnc2)c2ccc(Cl)c(Cl)c2n1 [I-805]
		> 10000	2000 to 30000	O=C(O)CCOCCOc1cc(-n2ccnc2)c2ccc(Cl)c(Cl)c2n1 [I-828, 3-(2-((7,8-dichloro-4-(1H-imidazol-1-yl)quinolin-2-yl)oxy)ethoxy)propanoic acid]
		< 2000	< 2000	O=C(O)COCCC[C@@H]1CCCN1c1cc(-n2ccnc2)c2ccc(Cl)c(Cl)c2n1 [I-820]
		> 10000	< 2000	O=C(O)CNC(=O)C[C@@H]1[C@@H](O)CCN1c1cc(-n2ccnc2)c2ccc(Cl)c(Cl)c2n1 [I-788, (2-((2R,3S)-1-(7,8-dichloro-4-(1H-imidazol-1-yl)quinolin-2-yl)-3-hydroxypyrrolidin-2-yl)acetyl)glycine]
		< 2000	2000 to 30000	COC(=O)[C@@H]1[C@@H](O)CCN1c1cc(-n2ccnc2)c2ccc(Cl)c(Br)c2n1 [I-872]
		> 10000	< 2000	CC(=O)N[C@H]1CCN(c2cc(-n3ccnc3)c3ccc(Cl)c(Cl)c3n2)C1 [I-764, (S)—N-(1-(7,8-dichloro-4-(1H-imidazol-1-yl)quinolin-2-yl)pyrrolidin-3-yl)acetamide]
